Measurements as given in paper PMC3349126, “Evaluation of the Cytotoxicity of Satureja spicigera and Its Main Compounds” (The Scientific World Journal, 2012).
In brackets after ≈: the same amount, converted by molar mass. Where a name gives a salt, the structure may show the parent alone.

Columns and labels:
[1] = Brine shrimp lethality assay (BSA); details: Artemia salina (brine shrimp) nauplii, in vivo, probit analysis, read-out: LC50 against Artemia salina larvae
Protocol: Gohari et al. reported the method which was adopted to study the cytotoxic activity of the compounds [11]. Water life brand brine shrimp (Artemia salina) eggs were purchased from the Shalat Center (Tehran). The eggs were hatched in a flask containing 300 mL artificial seawater made […]. The flask was well aerated with the aid of an air pump and kept in a water bath at 29-30°C. A bright light was left on. The nauplii hatched within 48 h. The extracts and pure compounds were dissolved in normal saline. Different concentrations were obtained by serial dilution. Solution of each concentration (500 μL) was transferred into clean 24-well plates via a pipette, and aerated seawater having 10–20 nauplii (500 μL) was added. A check count was performed and the number alive noted after 24 h. The mortality end point of the bioassay was determined as the absence of controlled forward motion during 30 seconds of observation. […] Lethality percentage was determined and LC50 calculated based on probit analysis with 95% of confidence interval [11].

[2] = system: T47D (human, breast, ductal carcinoma); experiment: MTT cytotoxicity assay, T47D; type: cell-based; details: 48 hours
Protocol: (§1) Four cancerous cell lines HT29/219 (human, colon, epithelial-like, carcinoma), Caco2 (human, colon, adenocarcinoma), NIH-3T3 (Swiss NIH mouse, embryo fibroblast), and T47D (human, breast, ductal carcinoma) were purchased from the Pasteur Institute, Tehran, Iran. The cells were maintained in RPMI 1640, supplemented with 10% fetal bovine serum, 0.28 units/mL insulin, 100 μg/mL streptomycin, 100 units/mL penicillin, and 0.3 mg/mL glutamine. The cells were grown at 37°C in a humidified atmosphere of 5% CO2, in air.
(§2) The cytotoxicity of the compounds isolated from S. spicigera was assayed using the MTT cytotoxicity assay. The cells (3 × 10^ 4) were plated in 500 μL of medium/well in 48-well plates (NUNC Cell Culture Flasks, Denmark). After an overnight incubation at 37°C, in 5% CO2, and a humidified atmosphere, the samples were added to the cells to a final concentration of 500 μg/mL. “Methotrexate” (positive control) and pure compounds were examined at concentrations ranging from 5, 10, 20, 40, 80, and 100 μg/mL. The plates were incubated at 37°C, in 5% CO2, humidified atmosphere, for 48 hours. After 48 hours, 50 μL of 5 mg/mL MTT (dissolved in PBS) was added per well. After three hours of incubation, the MTT solution was removed and the cells were washed with 100 μL of PBS, twice. One hundred and fifty microlitres of DMSO was added per well, to solubilize the formazan crystals. The optical densities of the wells were then measured at 570 nm (690 nm reference wavelength). By referring to the control (medium with DMSO), the cell survival was assessed.

[3] = system: NIH 3T3 (Swiss embryo fibroblast); experiment: MTT cytotoxicity assay, NIH 3T3; type: cell-based; details: Mus musculus, NIH3T3, 48 hours
Protocol: as §1, §2

[4] = system: HT-29 (colon adenocarcinoma); experiment: MTT cytotoxicity assay, HT-29; type: cell-based; details: Homo sapiens, 48 hours
Protocol: as §1, §2

[5] = system: Caco-2 (colon adenocarcinoma); experiment: MTT cytotoxicity assay, Caco-2; type: cell-based; details: Homo sapiens, 48 hours
Protocol: as §1, §2

[6] = system: HT29/219, Caco2, NIH-3T3, and T47D; experiment: MTT cytotoxicity assay, all four cell lines (statement in words); type: cell-based; details: 48 hours
Protocol: as §1
The cytotoxicity of the compounds isolated from S. spicigera was assayed using the MTT cytotoxicity assay. The cells (3 × 10^ 4) were plated in 500 μL of medium/well in 48-well plates (NUNC Cell Culture Flasks, Denmark). After an overnight incubation at 37°C, in 5% CO2, and a humidified atmosphere, the samples were added to the cells to a final concentration of 500 μg/mL. “Methotrexate” (positive control) and pure compounds were examined at concentrations ranging from 5, 10, 20, 40, 80, and 100 μg/mL. The plates were incubated at 37°C, in 5% CO2, humidified atmosphere, for 48 hours. After 48 hours, 50 μL of 5 mg/mL MTT (dissolved in PBS) was added per well. […] The optical densities of the wells were then measured at 570 nm (690 nm reference wavelength). By referring to the control (medium with DMSO), the cell survival was assessed.

| SMILES | LC50 at 24 h [1] [µg/mL] | IC50 [2] [µg/mL] | IC50 [3] [µg/mL] | IC50 [4] [µg/mL] | IC50 [5] [µg/mL] | inhibition of the cell growth or proliferation (in words) [6] | melting point [°C] |
| --- | --- | --- | --- | --- | --- | --- | --- |
| COc1ccc2cc3[n+](cc2c1OC)CCc1cc2c(cc1-3)OCO2 [berberine hydrochloride, reference compound] | 26 | – | – | – | – | – | – |
| O=C(c1c(O)cc(O)cc1O)C(O)Cc1ccc(O)cc1 (stereo not shown) [compound 7, nubigenol] | – | 132 (≈ 455 µM) | 112 (≈ 386 µM) | > 150 | 143 (≈ 493 µM) | – | – |
| O=C1CC(c2cc(O)cc(O)c2)Oc2cc(O)cc(O)c21 (stereo not shown) [compound 8, 5,7,3′,5′-Tetrahydroxy Flavanone] | 2 (≈ 6.94 µM) | > 150 | 101 (≈ 349 µM) | > 150 | > 150 | did not show significant inhibition | – |
| COc1cc(C2CC(=O)c3c(O)cc(OC4OC(COC5OC(C)C(O)C(O)C5O)C(O)C(O)C4O)cc3O2)ccc1O [compound 9, 5,4′-Dihydroxy-3′-methoxyflavanone-7-(6′′-O-α-L-rhamnopyranosyl)-β-D-glucopyranoside] | – | 98.7 (≈ 162 µM) | 140 (≈ 230 µM) | > 150 | > 150 | – | 256 |
